Values of other authors in patent US20210319872A1, “DRUG AND DEVICE COMBINATION PRODUCTS WITH IMPROVED SAFETY AND EFFICACY PROFILES” (priority 2016, published 2021).
Read-outs that look alike come from different tables or passages of the source. Blank lines part the entries; values can stand above or below the compound they belong to.

[1] = refractory oropharyngeal candidiasis

Compound: COCCc1ccc(OCC(O)CNC(C)C)cc1 (stereo not shown) [Metoprolol (Lopressor, Toprol XL)]
Bradyarrhythmia (in vivo): Cardiovascular: Bradyarrhythmia (3%), Cold extremities (1%),
Bronchospasm (in vivo): Respiratory: Bronchospasm (1%)
Cold extremities (in vivo): Cardiovascular: Bradyarrhythmia (3%), Cold extremities (1%),
Common side effects, listed without incidence (in vivo): Neurologic: Dizziness (10%), Fatigue (10%), Headache
Constipation (in vivo): Gastrointestinal: Constipation (1%), Diarrhea (5%), Indigestion
Depression (in vivo): Psychiatric: Depression (5%)
Diarrhea (in vivo): Gastrointestinal: Constipation (1%), Diarrhea (5%), Indigestion
Dizziness (in vivo): Neurologic: Dizziness (10%), Fatigue (10%), Headache
Dyspnea (in vivo): Respiratory: Dyspnea (3%), Wheezing (1%)
Fatigue (in vivo): Neurologic: Dizziness (10%), Fatigue (10%), Headache
Heart failure (in vivo): Heart failure (1%), Hypotension (1%)
Hypotension (in vivo): Heart failure (1%), Hypotension (1%)
Indigestion (in vivo): (1%), Nausea (1%)
Nausea (in vivo): (1%), Nausea (1%)
Pruritus (in vivo): Dermatologic: Pruritus (5%), Rash (5%)
Rash (in vivo): Dermatologic: Pruritus (5%), Rash (5%)
Wheezing (in vivo): Respiratory: Dyspnea (3%), Wheezing (1%)

Compound: Nc1cc(N2CCCCC2)nc(N)[n+]1[O-] [Minoxidil]
Body fluid retention (incidence) (in vivo): Endocrine metabolic: Body fluid retention (7%), Hypernatremia
Electrocardiogram abnormal (incidence) (in vivo): abnormal (60%), Pericardial effusion (3%), Pericarditis,
Pericardial effusion (incidence) (in vivo): abnormal (60%), Pericardial effusion (3%), Pericarditis,

Compound: CN1CCN2c3ncccc3Cc3ccccc3C2C1 (stereo not shown) [Mirtazepine (Remeron)]
ALT/SGPT level raised (in vivo): Hepatic: ALT/SGPT level raised (2%)
Asthenia (in vivo): Neurologic: Asthenia (8%), Dizziness (7%), Somnolence (54%)
Cirrhosis of liver (in vivo): Hepatic: Cirrhosis of liver (less than 0.1%)
Constipation (in vivo): Gastrointestinal: Constipation (13%), Xerostomia (25%)
Disturbance in thinking (in vivo): Psychiatric: Disturbance in thinking (3%)
Dizziness (in vivo): Neurologic: Asthenia (8%), Dizziness (7%), Somnolence (54%)
Grand mal seizure (in vivo): Neurologic: Grand mal seizure (less than 0.1%), Status epilepticus
Increased appetite (in vivo): Endocrine metabolic: Increased appetite (17%), Serum triglycerides
Serum triglycerides raised (in vivo): raised (increases to 500 mg/dL or greater: 6%), Weight gain (body
Somnolence (in vivo): Neurologic: Asthenia (8%), Dizziness (7%), Somnolence (54%)
Weight gain (in vivo): weight increase of 7% or greater: adults 7.5%; pediatrics 49%)
Xerostomia (in vivo): Gastrointestinal: Constipation (13%), Xerostomia (25%)

Compound: CCOC(=O)[C@H](CCc1ccccc1)N[C@@H](C)C(=O)N1Cc2cc(OC)c(OC)cc2C[C@H]1C(=O)O [Moexipril (Univasc)]
Common side effects, listed without incidence (in vivo): Other: Influenza-like symptoms
Cough (in vivo): Respiratory: Cough (6.1%)
Diarrhea (in vivo): Gastrointestinal: Diarrhea (3.1%)
Dizziness (in vivo): Neurologic: Dizziness (4.3%)

Compound: CC(C)(C)NCC(O)COc1cccc2c1CC(O)C(O)C2 (stereo not shown) [Nadolol (Corgard)]
Bradyarrhythmia (in vivo): Cardiovascular: Bradyarrhythmia (2%)
Cardiac dysrhythmia (in vivo): Cardiovascular: Atrioventricular block, Cardiac dysrhythmia (1%),
Dizziness (in vivo): Neurologic: Dizziness (2%)
Fatigue (in vivo): Other: Fatigue (2%)
Heart failure (in vivo): Heart failure (1%)
Serious side effects, listed without incidence or only as rare (in vivo): Cardiovascular: Atrioventricular block, Cardiac dysrhythmia (1%),

Compound: CCCC(C)C1(CC)C(=O)NC(=O)NC1=O (stereo not shown) [Nembutal (pentobarbital)]
Agitation (in vivo): Psychiatric: Agitation (less than 1%)
Apnea (in vivo): Respiratory: Apnea (less than 1%), Hypoventilation (less than 1%)
Confusion (in vivo): Neurologic: Confusion (less than 1%), Dizziness (less than 1%),
Dizziness (in vivo): Neurologic: Confusion (less than 1%), Dizziness (less than 1%),
Hypoventilation (in vivo): Respiratory: Apnea (less than 1%), Hypoventilation (less than 1%)
Injury of liver (in vivo): Hepatic: Injury of liver (less than 1%)
Megaloblastic anemia (in vivo): Hematologic: Megaloblastic anemia (less than 1%)
Somnolence (in vivo): Somnolence (1% to 3%)
Stevens-Johnson syndrome (in vivo): Dermatologic: Stevens-Johnson syndrome (less than 1%)

Abdominal pain (hepatocellular carcinoma): 31%
Alopecia (hepatocellular carcinoma): 14%
Hypoalbuminemia (hepatocellular carcinoma): 59%
Hypocalcemia (hepatocellular carcinoma): 27%
Thrombocytopenia (hepatocellular carcinoma): 46%
Hepatitis (in vivo): < 0.1%
Hypertension, Grade 3 or 4 (in vivo): 4.3%
Pain (in vivo): ≥ 10%
Rash (in vivo): ≤ 35%
Acral erythema (renal cell carcinoma): 30%
Alopecia (renal cell carcinoma): 27%
Hypocalcemia (renal cell carcinoma): 12%
Thrombocytopenia (renal cell carcinoma): 12%
Weight decreased (renal cell carcinoma): 10%
Abdominal pain (thyroid carcinoma): 20%
Acral erythema (thyroid carcinoma): 69%
Alopecia (thyroid carcinoma): 67%
Decrease in appetite (thyroid carcinoma): 30%
Hemorrhage (thyroid carcinoma): carcinoma, 17.4%)
Hypocalcemia (thyroid carcinoma): 36%
Raised TSH level (thyroid carcinoma): 41%
Squamous cell carcinoma of skin (thyroid carcinoma): 3%
Weight decreased (thyroid carcinoma): 49%
Compound: CNC(=O)c1cc(Oc2ccc(NC(=O)Nc3ccc(Cl)c(C(F)(F)F)c3)cc2)ccn1 [Nexavar]
Acral erythema (hepatocellular carcinoma): Dermatologic: Acral erythema (hepatocellular carcinoma, 21%;
Lymphocytopenia (hepatocellular carcinoma): hepatocellular carcinoma, 47%), Thrombocytopenia (renal cell
Weight decreased (hepatocellular carcinoma): decreased (hepatocellular carcinoma, 30%; renal cell carcinoma,
Congestive heart failure (in vivo): Cardiovascular: Congestive heart failure (1.9%), Hypertension,
Hypertension, All grades (in vivo): Cardiovascular: Hypertension, All grades (19.1%)
Infectious disease (in vivo): Immunologic: Infectious disease (10% or greater)
Prolonged QT interval (in vivo): (Less than 0.1%)
Common side effect, Dermatologic (listed without frequency): Peeling of skin
Serious side effect, Dermatologic (listed without frequency): Stevens-Johnson syndrome
Serious side effect, Gastrointestinal (listed without frequency): Gastrointestinal: Gastrointestinal hemorrhage, Gastrointestinal
Serious side effect, Respiratory (listed without frequency): Respiratory tract hemorrhage
Abdominal pain (renal cell carcinoma): Gastrointestinal: Abdominal pain (renal cell carcinoma, 11%;
Hemorrhage (renal cell carcinoma): Hematologic: Hemorrhage (renal cell carcinoma, 15.3%; thyroid
Lymphocytopenia (renal cell carcinoma): Hematologic: Lymphocytopenia (renal cell carcinoma, 23%;
ALT/SGPT level raised, Grade 3 or higher (thyroid carcinoma): carcinoma, 4%), AST/SGOT level raised, Grade 3 or 4 (thyroid
ALT/SGPT level raised, all grades (thyroid carcinoma): 59%), AST/SGOT level raised, All grades (thyroid carcinoma,
AST/SGOT level raised, All grades (thyroid carcinoma): 54%)
AST/SGOT level raised, Grade 3 or 4 (thyroid carcinoma): 2%

Compound: COC(=O)C1=C(C)NC(C)=C(C(=O)OC)C1c1ccccc1[N+](=O)[O-] [Nifedipine (Adalat, Procardia)]
Dizziness (in vivo): Neurologic: Dizziness (4% to 10%), Headache (19% to 23%)
Flushing (in vivo): Dermatologic: Flushing (4% to 25%)
Headache (in vivo): Neurologic: Dizziness (4% to 10%), Headache (19% to 23%)
Hypotension (in vivo): Cardiovascular: Hypotension (up to 5%), Palpitations (up to 7%),
Myocardial infarction (in vivo): Cardiovascular: Myocardial infarction (up to 4%), Ventricular
Nausea (in vivo): Gastrointestinal: Nausea (up to 10%)
Palpitations (in vivo): Cardiovascular: Hypotension (up to 5%), Palpitations (up to 7%),
Peripheral edema (in vivo): Peripheral edema (7% to 29%)
Ventricular arrhythmia (in vivo): arrhythmia (less than 0.5%)

Compound: COCCOC(=O)C1=C(C)NC(C)=C(C(=O)OC(C)C)C1c1cccc([N+](=O)[O-])c1 (stereo not shown) [Nimodipine (Nimotop)]
Congestive heart failure (in vivo): Cardiovascular: Congestive heart failure (less than 1%)
Diarrhea (in vivo): Gastrointestinal: Diarrhea (up to 4.2%), Nausea (0.6% to 1.4%)
Disseminated intravascular coagulation (in vivo): (less than 1%), Hematoma (less than 1%)
Gastrointestinal hemorrhage (in vivo): Gastrointestinal: Gastrointestinal hemorrhage (less than 1%)
Headache (in vivo): Neurologic: Headache (up to 4.1%)
Hematoma (in vivo): (less than 1%), Hematoma (less than 1%)
Hypotension (in vivo): Cardiovascular: Hypotension (up to 8.1%)
Nausea (in vivo): Gastrointestinal: Diarrhea (up to 4.2%), Nausea (0.6% to 1.4%)
Serious side effects, listed without incidence or only as rare (in vivo): Hematologic: Bleeding, Disseminated intravascular coagulation

Compound: COC(=O)C1=C(C)NC(C)=C(C(=O)OCC(C)C)C1c1ccccc1[N+](=O)[O-] (stereo not shown) [Nisoldipine (Sular)]
Dizziness (in vivo): Neurologic: Dizziness (5%), Headache (22%)
Headache (in vivo): Neurologic: Dizziness (5%), Headache (22%)
Palpitations (in vivo): Cardiovascular: Palpitations (3%), Peripheral edema (22%),
Peripheral edema (in vivo): Cardiovascular: Palpitations (3%), Peripheral edema (22%),
Pharyngitis (in vivo): Respiratory: Pharyngitis (5%), Sinusitis
Serious side effects, listed without incidence or only as rare (in vivo): Cardiovascular: Myocardial infarction
Vasodilatation (in vivo): Vasodilatation (4%)

Compound: O=[N+]([O-])OCC(CO[N+](=O)[O-])O[N+](=O)[O-] [Nitrates (Nitroglycerin)]
Common side effect listed (incidence not given) (in vivo): Dermatologic: Flushing
Dizziness (incidence) (in vivo): Neurologic: Dizziness (5%), Headache (63% to 64%),
Headache (incidence) (in vivo): Neurologic: Dizziness (5%), Headache (63% to 64%),
Hypotension (incidence) (in vivo): Cardiovascular: Hypotension (4%)
Lightheadedness (incidence) (in vivo): Lightheadedness (6%)

Compound: CNCCC=C1c2ccccc2CCc2ccccc21 [Nortriptyline (Pamelor)]
Common side effects, listed without incidence (in vivo): Gastrointestinal: Constipation

Torsades de pointes (in vivo): pointes (less than 5%)
Fever (oropharyngeal candidiasis): 6%
Headache (oropharyngeal candidiasis): 8%
Diarrhea [1]: 13%
Fever [1]: 34%
Headache [1]: 20%
Nausea [1]: 29%
Vomiting [1]: candidiasis, 28%)
Compound: CC[C@@H]([C@H](C)O)n1ncn(-c2ccc(N3CCN(c4ccc(OC[C@@H]5CO[C@@](Cn6cncn6)(c6ccc(F)cc6F)C5)cc4)CC3)cc2)c1=O [Noxafil]
Cholestasis (frequency in words): Hepatic: Cholestasis (rare), Liver failure (rare)
Liver failure (frequency in words): Hepatic: Cholestasis (rare), Liver failure (rare)
Diarrhea (oropharyngeal candidiasis): oropharyngeal candidiasis, 10%; refractory oropharyngeal
Nausea (oropharyngeal candidiasis): oropharyngeal candidiasis, 9%; refractory oropharyngeal
Vomiting (oropharyngeal candidiasis): oropharyngeal candidiasis, 7%; refractory oropharyngeal
